# Results reported in patent publication US5637085A, “Method of cancer tumor treatment by slow release delivery of 1,2,4-benzotriazine oxides to tumor site” (priority 1995, dated 1997).
# “And” between values parts separate entries of the source, which are not always exact repeats. Equal entries are not always repeated.
# Experiments:
# [1] = Toxicity, experiment B: mean low and final animal weights as a fraction of the pretreatment weight; type: in vivo, male Balb/c athymic nude mice
# Excerpt: (§1) Nude mouse xenonaft: Six week old male Balb/c athymic nude mice received subcutaneous injections of 4×10^6 (experiment A) and 5×10^6 (experiment B) U251 cells in the left posterior extremity. Tumors were visible after 6 to 8 days. Tumor sizes ranged from 0.51-1.2 cm^3 at the start of the treatment. […] Mice were sacrificed after tumors reached at least twice their original tumor volume.
# (§2) Systemic Administration of Tirapazamine: The drug was supplied by Sanoff Winthrop, Collegeville, Pa. Tirapazamine was dissolved in physiological saline at a concentration of […] and intraperitoneal (IP) injections were given in a volume of 0.02 ml/g body weight (0.08 mmole/kg). Animals in experiment A received daily injections, and animals in experiment B received injections twice daily over 3 consecutive days for a total of 6 injections.
# (§3) Implantation of Polymer Discs:. For surgical implantation of polymer discs, animals were anesthetized with methoxyflurane, a skin incision was made next to the xenograft, and an empty disc or tirapazamine disc was inserted in the center of the tumor via a single 3-4 mm incision. The incision was closed using wound clips. Contralateral flank polymer discs were placed subcutaneously using the same technique.
# (§4) In Vivo Irradiation: A Mark I Irradiator (Model 68, J. L. Shepherd and Assoc.) was used for in vivo irradiation. The dose to the xenograft was calibrated using TLD dosimetry and confirmed with radiochromic dye media (Gafchromic) mouthed in polystyrene mouse phantoms. The tumor bearing flank was selectively irradiated, with shielding of the mouse trunk and head. In experiment A, irradiation began on the first day of IP tirapazamine injection, and animals received 2 Gy×6 consecutive daily fractions. In experiment B, irradiation and systemic tirapazamine administration began one day following polymer disc implantation and animals received 2 Gy twice daily (separated by 5-6 hours) over 3 consecutive days for a total of 6 fractions. Radiation treatments were given 5-20 minutes following IP drag or saline injections.
# (§5) Tumor Volumetrics: Tumor length (L), width (W), and height (H) were measured twice weekly and tumor volumes were calculated as pi/6×L×W×H. The logarithm of the ratio of this product (V) to the initial product (VO) for each animal was calculated and the mean logarithm of this ratio for each treatment group was plotted versus time. The time of regrowth to twice the original tumor volume (V/VO=2; log V/VO=0.3) for each animal and treatment group was calculated from the plot of log V/VO vs. time. Mean tumor volume doubling time (VDT) was used as the endpoint to determine efficacy of a given treatment arm on U251 xenograft tumors. Each animal was weighed bi-weekly to assess possible toxicity to treatment.
# The weight losses were transient, with all groups exceeding their pretreatment weights prior to sacrifice.
# U251 GBM xenograft [2] = assay: Experiment A: U251 xenograft response to systemic delivery of tirapazamine (mean tumor volume doubling time); type: in vivo, human U251 in male Balb/c athymic nude mice
# Protocol: (§6) Tumor Cell line: The human GBM cell line (U251) used in the study was obtained from the DCT Tumor Repository, National Cancer Institute. Cells were cultured in Delbecco's MEM/Ham's F-12 nutrient mixture with 10% fetal bovine serum (GIBCO) and […] (penicillin and streptomycin) in 12×80 mm plastic culture dishes or T25 culture flasks. Cells were incubated (37° C.) in a mixture of 5% carbon dioxide and 95% air. Media were changed twice weekly and cells were passaged at confluence with 0.5% trypsin.
# as §1, §2, §4
# as §5, with “Each animal was weighed bi-weekly to assess possible toxicity to treatment.” left out
# [3] = test system: mouse SCCVII and other tumors; conditions: multiple injections in conjunction with fractionated irradiation; cited from earlier work
# U251 GBM xenograft [4] = assay: Experiment B: U251 xenograft response to systemic and intratumoral polymer delivery of tirapazamine (mean tumor volume doubling time); type: in vivo, human U251 in male Balb/c athymic nude mice
# Protocol: as §6, §1, §2
# Tirapazamine Polymer Formulation: 2 mg tirapazamine and 8 mg PCPP:SA polymer were combined in methylene chloride ([…] wt/wt). The solvents were removed by desiccation under vacuum. The tirapazamine containing polymers were then pressed into discs measuring 3 mm in diameter and 1 mm in height. Each disc weighed 10 mg.
# as §3, §4, §5
# Outcomes among experimental groups were compared using the two tailed Student's test.
# Intralesional delivery of tirapazamine by polymer implants: After establishing the antitumor effect of systemic administration of tirapazamine on GBM xenografts, experiment B was done to evaluate intralesional polymer delivery of tirapazamine alone or combined with irradiation. […]
# [5] = test system: FSalIC Murine Fibrosarcoma; conditions: SR-4233 just before single-dose cyclophosphamide, carmustine or melphalan; cited from earlier work
# [6] = test system: mouse squamous cell VII tumors; conditions: cited from earlier work
# [7] = contralateral flank drug implant and tumor empty implant + radiation, group 4
# [8] = tumor drug implant + IP tirapazamine + radiation, group 7
# [9] = tumor drug implant + IP tirapazamine, no radiation, group 2
# [10] = tumor drug implant + radiation, group 5
# [11] = tumor empty implant + IP tirapazamine + radiation, group 6
# [12] = within one hour of injecting tirapazamine
compound,measurement,setting,value
"Nc1n[n+]([O-])c2ccccc2[n+]1[O-] [tirapazamine, 3-amino-1,2,4-benzotriazine-1,4-dioxide]",systemic toxicity (weight loss),"[1]; combination of IP and polymer tirapazamine, transient, toxicity primarily associated with the IP treatments",produced systemic toxicity
same,Final body weight/Pretreatment weight (± SEM),[1]; [7],1.08 ± .02
same,Low weight post treatment/Pretreatment weight (± SEM),[1]; [7],0.96 ± .02
same,Final body weight/Pretreatment weight (± SEM),[1]; [8],1.06 ± .03
same,Low weight post treatment/Pretreatment weight (± SEM),[1]; [8],0.85 ± .03
same,Final body weight/Pretreatment weight (± SEM),[1]; [9],1.05 ± .04
same,Low weight post treatment/Pretreatment weight (± SEM),[1]; [9],0.95 ± .01
same,Final body weight/Pretreatment weight (± SEM),[1]; [10],1.06 ± .01
same,Low weight post treatment/Pretreatment weight (± SEM),[1]; [10],0.95 ± .01
same,Final body weight/Pretreatment weight (± SEM),[1]; [11],1.09 ± .03
same,Low weight post treatment/Pretreatment weight (± SEM),[1]; [11],0.89 ± .01
same,effect on mean volume doubling time (VDT),"U251 GBM xenograft [2]; IP tirapazamine alone, no radiation",no effect
same,Mean xenograft tumor volume doubling time (VDT) ± SEM,"U251 GBM xenograft [2]; IP tirapazamine daily × 6 (0.08 mmole/kg) plus radiation 2Gy daily × 6, group 4",35 days and 35 ± 2.5 days
same,Mean xenograft tumor volume doubling time (VDT) ± SEM,"U251 GBM xenograft [2]; IP tirapazamine daily × 6 (0.08 mmole/kg), no radiation, group 2",12 days and 12 ± 0.6 days
same,lengthening of mean VDT,"U251 GBM xenograft [2]; fractionated radiation (2 Gy×6) plus IP tirapazamine, 12 days for fractionated radiation alone",25 days
same,tumor cell kill with fractionated irradiation,[3],increases tumor cell kill while sparing normal tissue
same,Mean xenograft tumor doubling time (VDT) ± SEM,"U251 GBM xenograft [4]; contralateral flank drug implant and tumor empty implant + radiation 2Gy bid × 3 days, group 4",16.4 ± 1.57 days
same,growth delay,"U251 GBM xenograft [4]; group 7 vs IP tirapazamine alone plus radiation, P=0.016",11.8 days
same,growth delay,"U251 GBM xenograft [4]; group 7 vs tumor drug implant alone plus radiation, P=0.004",12.8 days
same,growth delay,"U251 GBM xenograft [4]; tumor drug implant + IP tirapazamine + radiation (group 7) vs radiation alone controls, P<0.001",16.5 days
same,Mean xenograft tumor doubling time (VDT) ± SEM,"U251 GBM xenograft [4]; tumor drug implant + IP tirapazamine bid + radiation 2Gy bid × 3 days, group 7",35.8 ± 2.0 days
same,Mean xenograft tumor doubling time (VDT) ± SEM,"U251 GBM xenograft [4]; tumor drug implant + IP tirapazamine bid, no radiation, group 2",10.5 ± .87 days
same,growth delay,"U251 GBM xenograft [4]; tumor drug implant + IP tirapazamine, no radiation vs tumor empty polymer implant (group 1), P=0.15",3.5 days
same,Mean xenograft tumor doubling time (VDT) ± SEM,"U251 GBM xenograft [4]; tumor drug implant + radiation 2Gy bid × 3 days, no IP tirapazamine, group 5",23.0 ± 2.49 days
same,growth delay,"U251 GBM xenograft [4]; tumor drug implant plus radiation (group 5) vs tumor empty implant plus contralateral drug implant with radiation, P=0.055",6.6 days
same,growth delay,"U251 GBM xenograft [4]; tumor drug implant plus radiation (group 5) vs tumor empty polymer implant plus radiation, P=0.24",3.7 days
same,Mean xenograft tumor doubling time (VDT) ± SEM,"U251 GBM xenograft [4]; tumor empty implant + IP tirapazamine bid + radiation 2Gy bid × 3 days, group 6",24.8 ± 3.0 days
same,growth delay,"U251 GBM xenograft [4]; tumor empty implant + IP tirapazamine with radiation (group 6) vs tumor empty implant plus radiation, P=0.15",5.5 days
same,cytotoxic effects on tumor cells in combination with alkylating agents,[5],marked dose enhancement leading to synergistic cytotoxic effects on tumor cells
same,time of return of hypoxic fraction to pretreatment levels,[6]; after injecting tirapazamine,3 to 5 h
same,hypoxic fraction,[6]; [12],0.57%
same,"hypoxic fraction, % of pretreatment levels",[6]; [12],about 7%
